# Reference: patent US20250236655A1, “PROCESS FOR THE PREPARATION OF LIRAGLUTIDE” (SHILPA PHARMA LIFESCIENCES LIMITED, priority 2024, published 2025)
# Assay: storage stability of liraglutide obtained by the present process
# Type: physicochemical
# Details: liraglutide of purity greater or equal to 99.5% obtained as per the present process
substance,measurement,value
Liraglutide,stable to handle and store without any significant or measurable change in its morphology and physicochemical characteristics,more than 6 months
